According to patent US20170182080A1, “FUNCTIONAL SCAFFOLD FOR TISSUE REPAIR AND REGENERATION” (priority 2014, published 2017):

Experiments:
[1] = test system: rat adipose derived cells; assay: Ki-67 proliferation marker immunohistochemical staining in 3D TG-Gel culture; type: cell-based
Protocol: 10^6/m1 rat adipose derived cells was suspended in the gelatin-transglutaminase crosslinked gel also referred to TG-Gel. Gel concentrations ranged from 3%, 4.5%, 6%, and 7.5%. A cell suspension in 20 μL volume was transferred in each well of 48 well culture plate followed by incubation at 37° C. for 30 min for gelation. 1.0 ml of medium (10%FBS/DMEM) with 5 nM Aza was added in each well and the plate was placed in a 5% CO2 37° C. incubator for 5 day culture. At day 5, cell proliferation marker (Ki-67) immune histochemical staining was performed on 3D culture. Medium without Aza was used as control.
The detection of Ki67, a proliferation marker, was performed using Anti-Ki-67 (Rabbit Monoclonal antibody, Clone SP6, from Thermo Scientific).

MSC or adipose cells = assay: Anti-N-cadherin staining, cardiomyocyte differentiation; type: cell-based; conditions: w/AZA-CR; 4.5% TG-Gel
[2] = test system: >8 month old retired rats; assay: Cranial defect model, bone growth and healing by histology; type: in vivo, rat; conditions: 500 nM Aza in collagen sponge; 5 mm skull defect; no exogenous BMP-2; four weeks
Protocol: Collagen matrix (as described above) was prepared and cut into 5 mm discs. An 5 mm diameter circular opening was created in the skull of >8 month old retired rats using circular drill bit including a lip to restrict the depth of the circular cutting. 500 nM of Aza was applied directly into the collagen sponge before implantation. Control included collagen discs without added Aza-CR but same volume of PBS. After four weeks of implantation, bone growth and healing status were evaluated histologically.

adipose cell 3D culture = assay: Anti-MyoD staining, myogenesis differentiation in adipose cell 3D culture; type: cell-based; conditions: w/AZA-CR
Description: A myogenic marker such as MyoD was stained on day 14 adipose cell 3D culture. The anti-MyoD antibody is a monoclonal available from Pierce.

[3] = test system: rat adipose derived cells; assay: Alkaline phosphatase (ALP) activity, osteogenic differentiation in 3D TG-Gel culture; type: cell-based; conditions: day 5
Protocol: (§1) Using the matrix as described above, the medium was changed to regular growth medium at day 5 and maintained for 14 days. Alkaline phosphatase (ALP) activity and staining were performed to characterize early osteogenesis at day 5 and calcium staining at day 14. ALP activity was determined by biochemical assay based on conversion of p-nitrophenyl phosphate to p-nitrophenol (pNPP), which was measured spectrophotometrically at 405 nm absorbance. Briefly, TG-Gel-Cell, a transglutaminase crosslinked gelatin gel and cell mixture, construct was washed twice with PBS and homogenized with buffer solution (0.25% TritonX-100 in PBS). After three freezing-thawing cycles, cells were released from TG-Gel by adding 50 μL of 0.25% trypsin and incubated at 37° C. for 4 hours. ALP activity was then quantified by using p-NPP as a substrate (Pierce, USA). The absorbance was measured by a multiplate reader (Molecular Devices, CA) after 30 minutes of incubation at 37° C. The ALP activity was specified as an arbitrary unit of ALP absorbance that normalized with cell numbers. Alizarin Red S staining as late marker of osteogenic differentiation was performed to determine the degree of calcium deposition as described. […] The supernatant was collected and absorbance was measured by a multiplate reader (Molecular Devices, CA).

Fisher rats = assay: Cartilage defect model (osteochondral defect in trochlear groove), histology; type: in vivo, rat; conditions: 4.5% Tg-Gel + 50 μL Aza (500 nM) implanted in defect; at 7 days; cell morphology resembles chondrogenic cells
Protocol: Fisher rats (7-8-weeks old, 200-250 g each) were used in this study. They were randomly enrolled into two experimental groups,A, 4.5% Tg-Gel +50 μL PBS and B, 4.5% Tg-Gel +50 μL Aza (500 nM), 4 animals per group. A 3-mm diameter×2-mm deep osteochondral defect was drilled into the rat trochlear groove, using a dermal biopsy punch (Miltex, Inc.). Implant gel was placed in the defect area. Skin was closed with 4-0 suture. […]
Fisher rats (7-8-weeks old, 200-250 g each) were used in this study. They were randomly enrolled into two experimental groups,A, 4.5% Tg-Gel+50 μL PBS and B, 4.5% Tg-Gel+50 μL Aza (500 nM), 4 animals per group. A 3-mm diamete×2-mm deep osteochondral defect was drilled into the rat trochlear groove, using a dermal biopsy punch (Miltex, Inc.). Implant gel was placed in the defect area. Skin was closed with 4-0 suture. […]

[4] = test system: rat adipose derived cells; assay: Alizarin Red S calcium deposition, osteogenic differentiation in 3D TG-Gel culture; type: cell-based; conditions: day 14
Protocol: as §1, with “CA). […]” for “CA).”

Nc1ncn([C@@H]2O[C@H](CO)[C@@H](O)[C@H]2O)c(=O)n1 [AZA-CR, 5-azacytidine]
Ki67 positive staining, Aza group versus control ([1]; 3%-4.5% gel condition): no difference
Ki67 positive staining, Aza group versus control ([1]; 6%-7% gel condition, evenly distributed in whole 3D construct): significantly more positive stained cells
Anti - Ki67, Center ([1]; w/AZA-CR (5 nM Aza in medium), 4.5% TG-Gel, day 5): ~30%
Anti - Ki67, Center and Peripheral (evenly distributed) ([1]; w/AZA-CR (5 nM Aza in medium), 6% TG-Gel, day 5): Evenly distributed (~80%)
Anti - Ki67, Center and Peripheral (evenly distributed) ([1]; w/AZA-CR (5 nM Aza in medium), 7.5% TG-Gel, day 5): Evenly distributed (~50%)
Anti-N-Cadherin, Center (MSC or adipose cells): ~50%
bone remodeling at the bony defect site [2]: significant bone remodeling
Anti-MyoD on day 14, Center and Peripheral (evenly distributed) (adipose cell 3D culture; 4.5% TG-Gel): ~80% Evenly Distributed
Anti-MyoD on day 14, Center and Peripheral (evenly distributed) (adipose cell 3D culture; 6% TG-Gel): ~70% Evenly Distributed
ALP activity ([3]; versus without AZA-CR): enhanced
TG-Gel concentration at which ALP peaked ([3]; with and without AZA-CR): 6 % TG-Gel
histology of osteochondral defect site, area adjacent to subchondral bone (Fisher rats): neo cell infiltration
calcium deposition ([4]; versus without AZA-CR): enhanced
TG-Gel concentration at which calcium deposition peaked ([4]; with and without AZA-CR): 9 % TG-Gel
